Assay results from patent US20230002359A1, “PESTICIDALLY ACTIVE FUSED BICYCLIC HETEROAROMATIC COMPOUNDS” (priority 2019, published 2023).

What was measured:
Assay type in all cases: in vivo
[1] = tested on: Myzus persicae (Green Peach Aphid); assay: Example B5: Myzus persicae (green peach aphid) feeding/contact activity, sunflower leaf discs; conditions: foliar, 144 h, application rate of 200 ppm, 6 days after infestation
Method: Sunflower leaf discs were placed onto agar in a 24-well microtiter plate and sprayed with aqueous test solutions prepared from 10′000 ppm DMSO stock solutions. After drying, the leaf discs were infested with an aphid population of mixed ages. The samples were assessed for mortality 6 days after infestation.

[2] = tested on: Chilo suppressalis (Striped Rice Stemborer); assay: Example B3: Chilo suppressalis (striped rice stemborer), artificial diet, L2 larvae; conditions: 144 h, application rate of 200 ppm, 6 days after infestation, L2 larvae, read-out: control in at least one of the three categories (mortality, anti-feedant effect, or growth inhibition)
How it was run: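 Diet-incorporation surface assay: aqueous dilutions of 10'000 ppm DMSO stock applied to artificial diet, dried; 6-8 L2 larvae/well; read day 6 post-infestation for mortality, antifeedant effect, growth inhibition vs untreated. Active if any category above untreated.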

[3] = tested on: Diabrotica Balteata (Corn Root Worm); assay: Example B1: Diabrotica balteata (corn root worm), maize sprouts sprayed, L2 larvae; conditions: 96 h, application rate of 200 ppm, 4 days after infestation, L2 larvae, read-out: control in at least one of the two categories (mortality or growth inhibition)
How it was run: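 Read-out is mortality plus growth inhibition relative to untreated controls, assessed 4 days after infestation. Sprouts resting on agar are sprayed with aqueous solutions derived from 10′000 ppm DMSO stocks and left to dry before L2 larvae (6 to 10 per well) are added.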

[4] = tested on: Plutella xylostella (Diamond Back Moth); assay: Example B4: Plutella xylostella (diamond back moth), artificial diet, eggs, 24-well; conditions: 192 h, application rate of 200 ppm, 8 days after infestation, eggs, read-out: control in at least one of the two categories (mortality or growth inhibition)
Method: 24-well microtiter plates with artificial diet were treated with aqueous test solutions prepared from 10′000 ppm DMSO stock solutions by pipetting. After drying, Plutella eggs were pipetted through a plastic stencil onto a gel blotting paper and the plate was closed with it. The samples were assessed for mortality and growth inhibition in comparison to untreated samples 8 days after infestation.

[5] = tested on: Spodoptera littoralis (Egyptian Cotton Leaf Worm); assay: Example B7: Spodoptera littoralis (Egyptian cotton leaf worm), cotton leaf discs sprayed, L1 larvae; conditions: foliar, 72 h, application rate of 200 ppm, 3 days after infestation, L1 larvae, read-out: control in at least one of the three categories (mortality, anti-feedant effect, or growth inhibition)
How it was run: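 Five L1 larvae per sprayed, dried cotton leaf disc on agar. Activity is counted when mortality, anti-feedant effect or growth inhibition exceeds the untreated sample at day 3.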

[6] = tested on: Myzus persicae (Green Peach Aphid); assay: Example B6: Myzus persicae (green peach aphid) intrinsic activity, sucrose solution; conditions: 120 h, test rate of 12 ppm, 5 days after infestation, intrinsic activity, read-out: mortality
How it was run: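 Compounds from 10′000 ppm DMSO stocks were mixed into sucrose solution in 24-well plates sealed with Parafilm. Aphid-infested pea seedlings were set on the membrane and the plate inverted so aphids fed through it. Mortality scored 5 days after infestation.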

[7] = tested on: Euschistus heros (Neotropical Brown Stink Bug); assay: Example B2: Euschistus heros (neotropical brown stink bug), soybean leaves sprayed, N2 nymphs; conditions: 120 h, application rate of 200 ppm, 5 days after infestation, N2 nymphs, read-out: control in at least one of the two categories (mortality or growth inhibition)
Method: Soybean leaves on agar in 24-well microtiter plates were sprayed with aqueous test solutions prepared from 10′000 ppm DMSO stock solutions. After drying the leaves were infested with N2 nymphs. The samples were assessed for mortality and growth inhibition in comparison to untreated samples 5 days after infestation.

C[C@H](Nc1ncnc2c(C(F)(F)F)cc(Cl)cc12)c1ncnn1-c1ncccn1 [P.24, 6-chloro-N-[(1S)-1-(2-pyrimidin-2-yl-1,2,4-triazol-3-yl)ethyl]-8-(trifluoromethyl)quinazolin-4-amine]
≥ 80%: mortality at 200 ppm [1] | percent control (mortality, anti-feedant effect or growth inhibition) at 200 ppm [2] | percent control (mortality or growth inhibition) at 200 ppm [3] | percent control (mortality or growth inhibition) at 200 ppm [4] | percent control (mortality, anti-feedant effect or growth inhibition) at 200 ppm [5] | mortality at 12 ppm [6]

CC(Nc1nc(C(F)(F)F)nc2c(C(F)(F)F)cc(C(F)(F)F)cc12)c1ncnn1-c1ccc(C#N)cn1 (stereo not shown) [P.59, 6-[5-[1-[[2,6,8-tris(trifluoromethyl)quina-zolin-4-yl]amino]ethyl]-1,2,4-triazol-1-yl]pyridine-3-carbonitrile]
≥ 80%: mortality at 200 ppm [1]

C[C@@H](c1ncnn1-c1ncccn1)N(C)c1ncnc2c(OC(F)F)cc(Cl)cc12 [P.90, 6-chloro-8-(difluoromethoxy)-N-methyl-N-[(1S)-1-(2-pyrimidin-2-yl-1,2,4-triazol-3-yl)ethyl]quinazolin-4-amine]
≥ 80%: mortality at 200 ppm [1] | percent control (mortality, anti-feedant effect or growth inhibition) at 200 ppm [2] | percent control (mortality or growth inhibition) at 200 ppm [3] | percent control (mortality or growth inhibition) at 200 ppm [4] | percent control (mortality or growth inhibition) at 200 ppm [7] | mortality at 12 ppm [6]

CC(c1ncnn1-c1ncccn1)N(C)c1ncnc2c(C(F)(F)F)cc(Br)cc12 (stereo not shown) [P.127, 6-bromo-N-methyl-N-[1-(2-pyrimidin-2-yl-1,2,4-triazol-3-yl)ethyl]-8-(trifluoromethyl)quinazolin-4-amine]
≥ 80%: mortality at 200 ppm [1] | percent control (mortality, anti-feedant effect or growth inhibition) at 200 ppm [2] | percent control (mortality or growth inhibition) at 200 ppm [3] | percent control (mortality or growth inhibition) at 200 ppm [4] | percent control (mortality, anti-feedant effect or growth inhibition) at 200 ppm [5] | mortality at 12 ppm [6]

CC(c1ncnn1-c1ncccn1)N(C)c1ncnc2c(Cl)c(F)c(Cl)cc12 (stereo not shown) [P.165, 6,8-dichloro-7-fluoro-N-methyl-N-[1-(2-pyrimidin-2-yl-1,2,4-triazol-3-yl)ethyl]quinazolin-4-amine]
≥ 80%: mortality at 200 ppm [1]

C[C@@H](c1ncnn1-c1ccc(C#N)cn1)N(C)c1ncnc2c(C(F)(F)F)cc(I)cc12 [P.184, 6-[5-[(1S)-1-[[6-iodo-8-(trifluoromethyl)quinazolin-4-yl]-methyl-amino]ethyl]-1,2,4-triazol-1-yl]pyridine-3-carbonitrile]
≥ 80%: mortality at 200 ppm [1] | percent control (mortality, anti-feedant effect or growth inhibition) at 200 ppm [2] | percent control (mortality or growth inhibition) at 200 ppm [3] | percent control (mortality or growth inhibition) at 200 ppm [4] | mortality at 12 ppm [6]

CC(c1ncnn1-c1ccc(F)cn1)N(C)c1ncnc2c(C(F)(F)F)cc(Cl)cc12 (stereo not shown) [P.187, 6-chloro-N-[1-[2-(5-fluoro-2-pyridyl)-1,2,4-triazol-3-yl]ethyl]-N-methyl-8-(trifluoromethyl)quinazolin-4-amine]
≥ 80%: mortality at 200 ppm [1] | percent control (mortality, anti-feedant effect or growth inhibition) at 200 ppm [2] | percent control (mortality or growth inhibition) at 200 ppm [3] | percent control (mortality or growth inhibition) at 200 ppm [4] | percent control (mortality or growth inhibition) at 200 ppm [7] | mortality at 12 ppm [6]

CC(c1ncnn1-c1ccc(C#N)cn1)N(C)c1ncnc2c(Br)cc(OC(F)(F)F)cc12 (stereo not shown) [P.217, 6-[5-[1-[[8-bromo-6-(trifluoromethoxy)quinazo-lin-4-yl]-methyl-amino]ethyl]-1,2,4-triazol-1-yl]pyridine-3-carbonitrile]
≥ 80%: mortality at 200 ppm [1] | percent control (mortality, anti-feedant effect or growth inhibition) at 200 ppm [2] | percent control (mortality or growth inhibition) at 200 ppm [3] | percent control (mortality or growth inhibition) at 200 ppm [4] | percent control (mortality, anti-feedant effect or growth inhibition) at 200 ppm [5] | mortality at 12 ppm [6]

CC(c1ncnn1-c1ccc(OC(F)F)cn1)N(C)c1ncnc2c(C(F)(F)F)cc(Cl)cc12 (stereo not shown) [P.236, 6-chloro-N-[1-[2-[5-(difluoromethoxy)-2-pyridyl]-1,2,4-triazol-3-yl]ethyl]-N-methyl-8-(trifluoromethyl)quinazolin-4-amine]
≥ 80%: mortality at 200 ppm [1] | percent control (mortality, anti-feedant effect or growth inhibition) at 200 ppm [2] | percent control (mortality or growth inhibition) at 200 ppm [3] | percent control (mortality or growth inhibition) at 200 ppm [4] | percent control (mortality, anti-feedant effect or growth inhibition) at 200 ppm [5] | mortality at 12 ppm [6]

CC(c1ncnn1-c1ncccn1)N(C)c1ncnc2c(Br)cc(Br)cc12 (stereo not shown) [P.258, 6,8-dibromo-N-methyl-N-[1-(2-pyrimidin-2-yl-1,2,4-triazol-3-yl)ethyl]quinazolin-4-amine]
≥ 80%: mortality at 200 ppm [1] | percent control (mortality, anti-feedant effect or growth inhibition) at 200 ppm [2] | percent control (mortality or growth inhibition) at 200 ppm [3] | percent control (mortality or growth inhibition) at 200 ppm [4] | percent control (mortality, anti-feedant effect or growth inhibition) at 200 ppm [5] | mortality at 12 ppm [6]

C[C@@H](c1ncnn1-c1ncccn1)N(C)c1ncnc2c(C(F)(F)F)cc(S(=O)(=O)C(F)(F)F)cc12 [P.262, N-methyl-N-[(1S)-1-(2-pyrimidin-2-yl-1,2,4-triazol-3-yl)ethyl]-8-(trifluoromethyl)-6-(trifluoromethylsulfonyl) quinazolin-4-amine]
≥ 80%: percent control (mortality, anti-feedant effect or growth inhibition) at 200 ppm [2] | percent control (mortality or growth inhibition) at 200 ppm [3] | percent control (mortality or growth inhibition) at 200 ppm [4] | percent control (mortality or growth inhibition) at 200 ppm [7] | percent control (mortality, anti-feedant effect or growth inhibition) at 200 ppm [5] | mortality at 12 ppm [6]

C[C@H](Nc1ncnc2c(I)cc(C(F)(F)F)cc12)c1ncnn1-c1ccc(C#N)cn1 [P.263, 6-[5-[(1S)-1-[[8-iodo-6-(trifluoromethyl)quinazolin-4-yl]amino]ethyl]-1,2,4-triazol-1-yl]pyridine-3-carbonitrile]
≥ 80%: percent control (mortality, anti-feedant effect or growth inhibition) at 200 ppm [2] | percent control (mortality or growth inhibition) at 200 ppm [3] | percent control (mortality or growth inhibition) at 200 ppm [4] | percent control (mortality or growth inhibition) at 200 ppm [7] | percent control (mortality, anti-feedant effect or growth inhibition) at 200 ppm [5] | mortality at 12 ppm [6]

CC(c1ncnn1-c1ccc(C#N)cn1)N(C)c1ncnc2c(Br)cc(C(F)(F)F)cc12 (stereo not shown) [P.266, 6-[5-[1-[[8-bromo-6-(trifluoromethyl)quinazolin-4-yl]-methyl-amino]ethyl]-1,2,4-triazol-1-yl]pyridine-3-carbonitrile]
≥ 80%: percent control (mortality, anti-feedant effect or growth inhibition) at 200 ppm [2] | percent control (mortality or growth inhibition) at 200 ppm [3] | percent control (mortality or growth inhibition) at 200 ppm [4] | percent control (mortality or growth inhibition) at 200 ppm [7] | percent control (mortality, anti-feedant effect or growth inhibition) at 200 ppm [5] | mortality at 12 ppm [6]

C[C@@H](c1ncnn1-c1ncccn1)N(CC1CC1)c1ncnc2c(Cl)cc(C(F)(F)F)cc12 [P.272, 8-chloro-N-(cyclopropylmethyl)-N-[(1S)-1-(2-pyrimidin-2-yl-1,2,4-triazol-3-yl)ethyl]-6-(trifluoromethyl)quinazolin-4-amine]
≥ 80%: percent control (mortality, anti-feedant effect or growth inhibition) at 200 ppm [2] | percent control (mortality or growth inhibition) at 200 ppm [3] | percent control (mortality or growth inhibition) at 200 ppm [4] | percent control (mortality or growth inhibition) at 200 ppm [7] | percent control (mortality, anti-feedant effect or growth inhibition) at 200 ppm [5] | mortality at 12 ppm [6]
